Measured values from ChEMBL document CHEMBL1137041, “Novel epicatechin derivatives with antioxidant activity modulate interleukin-1beta release in lipopolysaccharide-stimulated human blood” (Bioorg Med Chem Lett, 2004).

Experiment: In vitro antioxidant effect by the inhibition of AAPH-induced lysis of human red blood cells (RBC)
Assay type: functional

Row | IC50 | Structure (SMILES)
1 | 89.4 µM | NCCS[C@H]1c2c(O)cc(O)cc2O[C@H](c2ccc(O)c(O)c2)[C@@H]1O
2 | 74.9 µM | N[C@@H](CS[C@H]1c2c(O)cc(O)cc2O[C@H](c2ccc(O)c(O)c2)[C@@H]1O)C(=O)O
3 | 120 µM | Oc1cc(O)c2c(c1)O[C@H](c1ccc(O)c(O)c1)[C@H](O)C2 [(-)-EPICATECHIN]
